Results from patent EP2951180B1, “2,6,7,8 SUBSTITUTED PURINES AS HDM2 INHIBITORS” (Merck Sharp & Dohme Corp., priority 2013, dated 2014).

Molecular target: T1, HDM2 (Homo sapiens, UniProt Q00987)
T1 construct: Thioredoxin (N); made in house; host or cells: E. coli strain BL21(DE3)Rosetta
Assay: HDM2 FRET assay (inhibition of binding of FITC labeled p53-pocket peptide to HDM2)
Settings: Table 6; read-out: FRET IC50
In short: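 Compounds were tested in 10-point serial dilution against 0.5 nM recombinant HDM2 binding 3 nM fluorescein-labeled p53-pocket peptide. Detection used 0.25 nM terbium cryptate anti-6xHis antibody in PBS buffer containing 0.01% BSA and 0.01% Tween-20.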

T1 sequence (Q00987 17-125): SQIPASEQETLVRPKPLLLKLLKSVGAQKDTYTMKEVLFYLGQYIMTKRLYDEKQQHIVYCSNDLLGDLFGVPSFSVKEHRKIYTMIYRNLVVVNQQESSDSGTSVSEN

| SMILES | IC50 |
| --- | --- |
| Cc1cccc(-c2nc3nc(C(=O)O)nc(NCC4CCCCC4)c3n2Cc2ccc(C(F)(F)F)cc2)c1 [Example 6.50, 6-[(cyclohexylmethyl)amino]-8-(3-methylphenyl)-7-[4-(trifluoromethyl)benzyl]-7H-purine-2-carboxylic acid] | 1370 nM |
| CCN(CC)c1nc(C(=O)O)nc2nc(-c3cccc(C)c3)n(Cc3ccc(C(F)(F)F)cc3)c12 [Example 6.51, 6-(diethylamino)-8-(3-methylphenyl)-7-[4-(trifluoromethyl)benzyl]-7H-purine-2-carboxylic acid] | 4600 nM |
| Cc1cccc(-c2nc3nc(C(=O)O)nc(N[C@H](C4CC4)C(F)(F)F)c3n2Cc2ccc(C(F)(F)F)cc2)c1 [Example 6.52, 6-{[(1R)-1-cyclopropyl-2,2,2-trifluoroethyl]amino}-8-(3-methylphenyl)-7-[4-(trifluoromethyl)benzyl]-7H-purine-2-carboxylic acid] | 319 nM |
| Cc1cccc(-c2nc3nc(C(=O)O)nc(N[C@@H](C4CC4)C(F)(F)F)c3n2Cc2ccc(C(F)(F)F)cc2)c1 [Example 6.53, 6-{[(1S)-1-cyclopropyl-2,2,2-trifluoroethyl]amino}-8-(3-methylphenyl)-7-[4-(trifluoromethyl)benzyl]-7H-purine-2-carboxylic acid] | 419 nM |
| CC[C@H](Nc1nc(C(=O)O)nc2nc(-c3cc(C(C)C)ccn3)n(Cc3ccc(C(F)(F)F)cc3)c12)C1CCC1 [Example 6.54, 6-{[(1S)-1-cyclobutylpropyl]amino}-8-[4-(1-methylethyl)pyridin-2-yl]-7-[4-(trifluoromethyl)benzyl]-7H-purine-2-carboxylic acid] | 203 nM |
| CC[C@@H](Nc1nc(C(=O)O)nc2nc(-c3cc(C(C)C)ccn3)n(Cc3ccc(C(F)(F)F)cc3)c12)C1CCC1 [Example 6.55, 6-{[(1R)-1-cyclobutylpropyl]amino}-8-[4-(1-methylethyl)pyridin-2-yl]-7-[4-(trifluoromethyl)benzyl]-7H-purine-2-carboxylic acid] | 9.27 nM |
| COc1ccc(C)cc1-c1nc2nc(C(=O)O)nc(N[C@H](C)C3CC3(C)C)c2n1Cc1ccc(C(F)(F)F)cc1 (stereo partly drawn) [Example 6.56, 6-{[(1R)-1-(2,2-dimethylcyclopropyl)ethyl]amino}-8-(2-methoxy-5-methylphenyl)-7-[4-(trifluoromethyl)benzyl]-7H-purine-2-carboxylic acid] | 1410 nM |
| CC(C)c1ccnc(-c2nc3nc(C(=O)O)nc(N[C@@H](c4ccccc4)C4CCC4)c3n2Cc2ccc(C(F)(F)F)cc2)c1 [Example 6.57, 6-{[(R)-cyclobutyl(phenyl)methyl]amino}-8-[4-(1-methylethyl)pyridin-2-yl]-7-[4-(trifluoromethyl)benzyl]-7H-purine-2-carboxylic acid] | 1060 nM |
| CC(C)c1ccnc(-c2nc3nc(C(=O)O)nc(N[C@H](c4ccccc4)C4CCC4)c3n2Cc2ccc(C(F)(F)F)cc2)c1 [Example 6.58, 6-{[(S)-cyclobutyl(phenyl)methyl]amino}-8-[4-(1-methylethyl)pyridin-2-yl]-7-[4-(trifluoromethyl)benzyl]-7H-purine-2-carboxylic acid] | 49.2 nM |
| CCN(C)c1nc(C(=O)O)nc2nc(-c3cccc(C)c3)n(Cc3ccc(C(F)(F)F)cc3)c12 [Example 6.59, 6-[ethyl(methyl)amino]-8-(3-methylphenyl)-7-[4-(trifluoromethyl)benzyl]-7H-purine-2-carboxylic acid] | 1000 nM |
| CC[C@@H](C)Nc1nc(C(=O)O)nc2nc(-c3cccc(C)c3)n(Cc3ccc(C(F)(F)F)cc3)c12 [Example 6.60, 8-(3-methylphenyl)-6-{[(1R)-1-methylpropyl]amino}-7-[4-(trifluoromethyl)benzyl]-7H-purine-2-carboxylic acid] | 583 nM |
| CCC(C)CNc1nc(C(=O)O)nc2nc(-c3cccc(C)c3)n(Cc3ccc(C(F)(F)F)cc3)c12 (stereo not shown) [Example 6.63, 6-[(2-methylbutyl)amino]-8-(3-methylphenyl)-7-[4-(trifluoromethyl)benzyl]-7H-purine-2-carboxylic acid] | 719 nM |
| CCCC(CCC)Nc1nc(C(=O)O)nc2nc(-c3cccc(C)c3)n(Cc3ccc(C(F)(F)F)cc3)c12 [Example 6.64, 8-(3-methylphenyl)-6-[(1-propylbutyl)amino]-7-[4-(trifluoromethyl)benzyl]-7H-purine-2-carboxylic acid] | 920 nM |
| CCCCN(CCC)c1nc(C(=O)O)nc2nc(-c3cccc(C)c3)n(Cc3ccc(C(F)(F)F)cc3)c12 [Example 6.68, 6-[butyl(propyl)amino]-8-(3-methylphenyl)-7-[4-(trifluoromethyl)benzyl]-7H-purine-2-carboxylic acid] | 681 nM |
| CCCCN(CC)c1nc(C(=O)O)nc2nc(-c3cccc(C)c3)n(Cc3ccc(C(F)(F)F)cc3)c12 [Example 6.69, 6-[butyl(ethyl)amino]-8-(3-methylphenyl)-7-[4-(trifluoromethyl)benzyl]-7H-purine-2-carboxylic acid] | 621 nM |
| Cc1cccc(-c2nc3nc(C(=O)O)nc(N(C)CC(C)C)c3n2Cc2ccc(C(F)(F)F)cc2)c1 [Example 6.71, 6-[methyl(2-methylpropyl)amino]-8-(3-methylphenyl)-7-[4-(trifluoromethyl)benzyl]-7H-purine-2-carboxylic acid] | 940 nM |
| Cc1cccc(-c2nc3nc(C(=O)O)nc(NC(C)C(C)C)c3n2Cc2ccc(C(F)(F)F)cc2)c1 (stereo not shown) [Example 6.73, 6-[(1,2-dimethylpropyl)amino]-8-(3-methylphenyl)-7-[4-(trifluoromethyl)benzyl]-7H-purine-2-carboxylic acid] | 437 nM |
| Cc1cccc(-c2nc3nc(C(=O)O)nc(NC(C)C(C)(C)C)c3n2Cc2ccc(C(F)(F)F)cc2)c1 (stereo not shown) [Example 6.74, 8-(3-methylphenyl)-7-[4-(trifluoromethyl)benzyl]-6-[(1,2,2-trimethylpropyl)amino]-7H-purine-2-carboxylic acid] | 552 nM |
| Cc1cccc(-c2nc3nc(C(=O)O)nc(NCC4CCC4)c3n2Cc2ccc(C(F)(F)F)cc2)c1 [Example 6.75, 6-[(cyclobutylmethyl)amino]-8-(3-methylphenyl)-7-[4-(trifluoromethyl)benzyl]-7H-purine-2-carboxylic acid] | 167 nM |

Same assay, conditions: read-out: inh. at 1000 nM (FRET)

| SMILES | inhibition at 1 µM |
| --- | --- |
| CC[C@H](C)Nc1nc(C(=O)O)nc2nc(-c3cccc(C)c3)n(Cc3ccc(C(F)(F)F)cc3)c12 [Example 6.61, 8-(3-methylphenyl)-6-{[(1S)-1-methylpropyl]amino}-7-[4-(trifluoromethyl)benzyl]-7H-purine-2-carboxylic acid] | 41% |
| Cc1cccc(-c2nc3nc(C(=O)O)nc(NC(C)CC(C)C)c3n2Cc2ccc(C(F)(F)F)cc2)c1 (stereo not shown) [Example 6.62, 6-[(1,3-dimethylbutyl)amino]-8-(3-methylphenyl)-7-[4-(trifluoromethyl)benzyl]-7H-purine-2-carboxylic acid] | 34% |
| Cc1cccc(-c2nc3nc(C(=O)O)nc(N(C)C4CCCC4)c3n2Cc2ccc(C(F)(F)F)cc2)c1 [Example 6.65, 6-[cyclopentyl(methyl)amino]-8-(3-methylphenyl)-7-[4-(trifluoromethyl)benzyl]-7H-purine-2-carboxylic acid] | 35% |
| Cc1cccc(-c2nc3nc(C(=O)O)nc(N4Cc5ccccc5C4)c3n2Cc2ccc(C(F)(F)F)cc2)c1 [Example 6.66, 6-(1,3-dihydro-2H-isoindol-2-yl)-8-(3-methylphenyl)-7-[4-(trifluoromethyl)benzyl]-7H-purine-2-carboxylic acid] | 46% |
| Cc1cccc(-c2nc3nc(C(=O)O)nc(N(C)Cc4ccccc4)c3n2Cc2ccc(C(F)(F)F)cc2)c1 [Example 6.67, 6-[benzyl(methyl)amino]-8-(3-methylphenyl)-7-[4-(trifluoromethyl)benzyl]-7H-purine-2-carboxylic acid] | 30% |
| CCCN(CC)c1nc(C(=O)O)nc2nc(-c3cccc(C)c3)n(Cc3ccc(C(F)(F)F)cc3)c12 [Example 6.70, 6-[ethyl(propyl)amino]-8-(3-methylphenyl)-7-[4-(trifluoromethyl)benzyl]-7H-purine-2-carboxylic acid] | 39% |
| Cc1cccc(-c2nc3nc(C(=O)O)nc(N(C)CC(C)C)c3n2Cc2ccc(C(F)(F)F)cc2)c1 [Example 6.72, 6-[methyl(2-methylpropyl)amino]-8-(3-methylphenyl)-7-[4-(trifluoromethyl)benzyl]-7H-purine-2-carboxylic acid] | 40% |
| Cc1cccc(-c2nc3nc(C(=O)O)nc(N4CCCC4CC(C)C)c3n2Cc2ccc(C(F)(F)F)cc2)c1 (stereo not shown) [Example 6.76, 8-(3-methylphenyl)-6-[2-(2-methylpropyl)pyrrolidin-1-yl]-7-[4-(trifluoromethyl)benzyl]-7H-purine-2-carboxylic acid] | 32% |
| Cc1cccc(-c2nc3nc(C(=O)O)nc(N(C)CCC(C)C)c3n2Cc2ccc(C(F)(F)F)cc2)c1 [Example 6.77, 6-[methyl(3-methylbutyl)amino]-8-(3-methylphenyl)-7-[4-(trifluoromethyl)benzyl]-7H-purine-2-carboxylic acid] | 36% |
| CCC1CCCN1c1nc(C(=O)O)nc2nc(-c3cccc(C)c3)n(Cc3ccc(C(F)(F)F)cc3)c12 (stereo not shown) [Example 6.78, 6-(2-ethylpyrrolidin-1-yl)-8-(3-methylphenyl)-7-[4-(trifluoromethyl)benzyl]-7H-purine-2-carboxylic acid] | 33% |
| CCCC(C)N(C)c1nc(C(=O)O)nc2nc(-c3cccc(C)c3)n(Cc3ccc(C(F)(F)F)cc3)c12 (stereo not shown) [Example 6.79, 6-[methyl(1-methylbutyl)amino]-8-(3-methylphenyl)-7-[4-(trifluoromethyl)benzyl]-7H-purine-2-carboxylic acid] | 43% |
| Cc1cccc(-c2nc3nc(C(=O)O)nc(N4CCCC4C4CCCCC4)c3n2Cc2ccc(C(F)(F)F)cc2)c1 (stereo not shown) [Example 6.80, 6-(2-cyclohexylpyrrolidin-1-yl)-8-(3-methylphenyl)-7-[4-(trifluoromethyl)benzyl]-7H-purine-2-carboxylic acid] | 40% |
